Test results: patent US6558712B1, “Delivery system for pharmaceutical, nutritional and cosmetic ingredients” (Natreon Inc., priority 2001, dated 2003)

Tests used:
[1] = system: human volunteers; experiment: Analgetic effect in human volunteers, oral; assay type: in vivo; settings: Ptz alone, 50 mg oral
[2] = system: albino rats; experiment: Analgetic effect in albino rats, oral; assay type: in vivo, rat; settings: Ptz alone, up to 240 mg/kg, p.o.
[3] = oral; background statement, species not given; cited from earlier work
[4] = system: Streptozocin (Stz)-induced diabetic (SID) rats; experiment: Plasma glucose level lowering in streptozocin-induced diabetic (SID) rats; assay type: in vivo, rat
Procedure: Streptozocin (Stz)-induced diabetic (SID) rats were used for this study. Insulin (I, 1.0 U/kg, p.o.) produed only marginal lowering (<10%) of plasma glucose level (PGL) in SID rats. […] By contrast, purified fulvic acid-insulin compositions (0.25 U/kg+10 mg/kg, p.o.) produced a 25% lowering, and Fulvic Acid-Insulin compositions (0.5 U/kg+10 mg/kg, p.o.) produced a 38% lowering of PGL in SID rates. The effect lasted for 6 hours.

[5] = system: albino rats, made partially diabetic by administering streptozotocin; experiment: Hypoglycaemic action (plasma glucose level) in albino rats made partially diabetic by streptozotocin; assay type: in vivo, rat; settings: Gb 1.0 mg/kg, water-suspension, p.o., n=10
Text: (§1) Glibenclamide (Gb) is an oral hypoglycaemic agent of the sulfonyl urea group; however it is only sparingly soluble in water.

[6] = Text: as §1

CC(C)=CCN1CCC2(C)c3cc(O)ccc3CC1C2C (stereo not shown) [Ptz, Pentazocin]
analgetic effect compared with codeine [1]: effective analgetic equivalent to 60 mg of codeine | duration of analgesia [1]: 120 min | time of onset of analgesia [1]: 60 min | analgetic effect [2]: does not exhibit any analgetic effect | bioavailability, administered orally [3]: 30-35%

Insulin
PGL lowering effect ([4]; insulin 0.25 U/kg p.o.): did not exhibit any PGL lowering effect | PGL lowering effect ([4]; insulin 0.5 U/kg p.o.): did not exhibit any PGL lowering effect | lowering of plasma glucose level (PGL) ([4]; insulin 1.0 U/kg, p.o.): < 10%

COc1ccc(Cl)cc1C(=O)NCCc1ccc(S(=O)(=O)NC(=O)NC2CCCCC2)cc1 [Gb, Glibenclamide]
blood sugar lowering effect [5]: did not exhibit any noticeable blood sugar lowering effect | solubility in water [6]: 10-12%
